Measurements published in article PMC12655551, “Design, Synthesis, and Evaluation of Pyrrole-Based Selective MAO-B Inhibitors with Additional AChE Inhibitory and Neuroprotective Properties Identified via Virtual Screening” (Pharmaceuticals, 2025).
Read-outs that look alike come from different tables or passages of the source.

Legend:
[1] = molecular target: T1, recombinant human MAO-B (hMAOB) (Homo sapiens, UniProt P27338); assay: biochemical; type: biochemical; conditions: 1 µM compound
T1 sequence (P27338 1-520): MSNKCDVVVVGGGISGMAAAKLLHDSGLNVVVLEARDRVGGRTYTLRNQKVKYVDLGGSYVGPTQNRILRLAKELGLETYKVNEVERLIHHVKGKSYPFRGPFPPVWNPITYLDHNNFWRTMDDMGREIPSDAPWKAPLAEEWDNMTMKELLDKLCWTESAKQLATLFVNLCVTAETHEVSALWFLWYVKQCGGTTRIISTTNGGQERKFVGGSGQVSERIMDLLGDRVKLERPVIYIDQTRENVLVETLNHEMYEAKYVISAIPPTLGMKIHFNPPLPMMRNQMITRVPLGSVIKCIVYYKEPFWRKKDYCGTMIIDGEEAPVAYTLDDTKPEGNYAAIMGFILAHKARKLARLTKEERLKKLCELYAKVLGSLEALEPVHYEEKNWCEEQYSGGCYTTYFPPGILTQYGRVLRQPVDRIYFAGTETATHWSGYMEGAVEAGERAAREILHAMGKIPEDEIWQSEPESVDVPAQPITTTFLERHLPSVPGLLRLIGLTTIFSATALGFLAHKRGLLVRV
Description: (§1) Monoamine oxidase (MAO) activity for both recombinant human MAO-A (hMAOA) and MAO-B (hMAOB) was assessed using a fluorometric assay based on the Amplex® UltraRed reagent. This method, originally reported by Bautista-Aguilera et al. and later adapted with minor changes by Kasabova-Angelova et al., detects hydrogen peroxide or peroxidase activity present in enzymes or biological samples. In this assay, Amplex® Red reacts in a 1:1 molar ratio with hydrogen peroxide in the presence of peroxidase, producing the red-fluorescent compound resorufin. Due to resorufin’s strong extinction coefficient (58,000 ± 5000 cm^−1·M^−1), measurements could be accurately taken using either fluorometric or spectrophotometric methods. […] The control conditions included the use of purified hMAOA or hMAOB in reaction buffer, enzyme solutions with hydrogen peroxide, and buffer alone. All the test compounds were initially prepared at a 1 µM final concentration. These compounds were combined with either hMAOA or hMAOB and loaded into a 96-well plate (with eight replicates per test compound), followed by incubation for 30 min at 37 °C in the dark. Subsequently, a 50 µL detection mix was added to each well. This mix contained Amplex® Red, horseradish peroxidase (HRP), and tyramine substrate, all prepared in a reaction buffer. As this enzymatic reaction proceeded continuously, the fluorescence signal was recorded every 30 min (at 0, 30, 60, 90, 120, and 150 min) to track enzymatic kinetics.

[2] = molecular target: T2, recombinant human MAO-A (hMAOA) (Homo sapiens, UniProt P21397); assay: MAO-A inhibition, fluorometric Amplex UltraRed assay; type: biochemical; conditions: for inhibition at 1 µM: read-out: Inhibition Activity 1 µM MAO-A
T2 sequence (P21397 1-527): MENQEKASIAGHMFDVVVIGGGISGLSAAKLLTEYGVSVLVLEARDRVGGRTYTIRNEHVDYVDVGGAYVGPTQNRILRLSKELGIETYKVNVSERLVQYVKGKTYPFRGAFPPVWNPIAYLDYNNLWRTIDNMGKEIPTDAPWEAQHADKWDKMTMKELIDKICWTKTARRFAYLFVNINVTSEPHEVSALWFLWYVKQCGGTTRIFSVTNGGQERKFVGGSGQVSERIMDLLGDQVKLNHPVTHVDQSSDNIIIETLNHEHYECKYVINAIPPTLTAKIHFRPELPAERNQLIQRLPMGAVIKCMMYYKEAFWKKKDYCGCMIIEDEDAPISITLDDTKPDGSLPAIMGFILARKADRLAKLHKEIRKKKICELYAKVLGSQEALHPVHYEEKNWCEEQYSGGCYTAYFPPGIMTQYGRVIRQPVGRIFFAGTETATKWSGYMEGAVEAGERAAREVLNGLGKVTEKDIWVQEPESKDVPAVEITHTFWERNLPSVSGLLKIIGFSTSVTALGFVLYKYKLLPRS
Description: as §1

BChE = molecular target: T3, BChE (Equus caballus, UniProt P81908); assay: biochemical; conditions: for inhibition at 200 µM: read-out: Inhibition Activity 200 µM BChE
T3 construct: purchased Sigma-Aldrich, Hamburg, Germany; host or cells: equine serum
Description: AChE and BChE inhibitory activity of the newly synthesized pyrrole-based compounds was measured using the microplate assay described by Ellman et al. with the modifications added by López et al.. The compounds were tested at concentrations between 0.01 and 200 μM. First, they were dissolved in phosphate buffer (PBS) (8 mM K2HPO4, 2.3 mM NaH2PO4, 0.15 M NaCl, pH 7.5), assisted by the addition of no more than 5% MeOH. Then, they were serially diluted with PBS to provide the concentration range needed. Acetylcholinesterase from Electrophorus electricus and butyrylcholinesterase from equine serum (Sigma-Aldrich, Hamburg, Germany) were used with a substrate solution of 5,5′-dithiobis(2-nitrobenzoic acid) (DTNB) with acetylthiocholine iodide (ATCI) or butyrylthiocholine iodide (BTCI), respectively (0.04 M Na2HPO4, 0.2 mM DTNB, 0.24 mM ATCI or BTCI, pH 7.5). A total of 50 μL of AChE or BChE (0.25 U/mL, in PBS) and 50 μL of the tested compound solution were added to the wells. Incubation of the plates was performed at room temperature for 30 min. Then, 100 μL of substrate solution was added to start the enzymatic reaction. […] Enzyme activity was calculated as an inhibition percentage compared to an assay including buffer instead of an inhibitor.

T3 sequence (P81908 whole entry): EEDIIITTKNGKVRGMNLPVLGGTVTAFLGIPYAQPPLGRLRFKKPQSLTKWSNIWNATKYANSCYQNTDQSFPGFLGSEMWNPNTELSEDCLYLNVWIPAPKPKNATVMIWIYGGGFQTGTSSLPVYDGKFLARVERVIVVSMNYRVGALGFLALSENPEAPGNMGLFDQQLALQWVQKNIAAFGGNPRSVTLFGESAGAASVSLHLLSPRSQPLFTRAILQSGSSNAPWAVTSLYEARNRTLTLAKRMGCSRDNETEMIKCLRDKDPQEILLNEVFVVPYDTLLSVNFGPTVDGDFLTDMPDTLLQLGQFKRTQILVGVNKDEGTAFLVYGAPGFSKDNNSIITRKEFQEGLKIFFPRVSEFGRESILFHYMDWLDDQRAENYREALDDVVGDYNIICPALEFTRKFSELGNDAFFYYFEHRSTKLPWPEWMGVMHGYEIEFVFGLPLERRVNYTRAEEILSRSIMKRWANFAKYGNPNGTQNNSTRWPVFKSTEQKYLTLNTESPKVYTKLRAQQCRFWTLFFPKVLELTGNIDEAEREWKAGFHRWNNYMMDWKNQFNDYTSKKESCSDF

Row | Compound | inhibition at 1 µM [1] | IC50 [2] | inhibition at 1 µM [2] | IC50 (BChE; BChE IC50, means ± SD of three experiments) | inhibition at 200 µM (BChE) | inhibition at 1 µM ([2]; 1 µM compound) | IC50 ([2]; means ± SD of three experiments, read-out: MAO-A IC50) | IC50 (BChE; means ± SD of three experiments, read-out: BChE IC50)
1 | Cc1ccc(C)n1C(Cc1cnc[nH]1)C(=O)O (stereo not shown) [EM-DC-19, 2-(2,5-dimethyl-1H-pyrrol-1-yl)-3-(2H-imidazol-4-yl)propanoic acid] | 50 ± 7.1% | > 100 µM | 99 ± 6.1% | > 200 µM | 18.03 ± 0.17% |  |  | 
2 | Cc1ccc(C)n1-c1ccc(CC(=O)O)cc1 [EM-DC-27, [4-(2,5-dimethyl-1H-pyrrol-1-yl)phenyl]acetic acid] | 50 ± 7.1% |  |  |  | 0% | 99 ± 7.1% | > 100 µM | > 200 µM
